Legend:
[1] = test system: S. cerevisiae AD1002 (CDR1+); experiment: Disk drug susceptibility assay, AD1002 compared with parental strain; assay type: cell-based; conditions: drug on filter disks, 30° C., 48 h
Procedure: (§1) S. cerevisiae AD1-8u^− (CDR1−) or AD1002 (CDR1+) cells (5×10^5) seeded in top agar on CSM agar plates (containing uracil for AD1-8u^−) were exposed to drugs or chemicals applied to filter disks and incubated at 30° C. for 48 h. The sensitivity of AD1002 to drugs or chemicals was unaffected by supplementing the medium with uridine (0.02% w/v). Amounts of individual drugs applied to disks are given in the Materials and methods section of Example 2, below.
(§2) Drug susceptibility was measured using disk assays on CSM-URA plates (containing 1.5% w/v agar). Plates were seeded with yeast cells suspended in top agar (5 ml, 10^5 cells/ml). For the uracil-dependent parental strain, agar was supplemented with 0.02% uridine. Five microliters of drug solution or solvent control were spotted onto sterile Whatman paper disks on the top agar. The following amounts (nmoles) of drugs were applied to individual disks: fluconazole, 6.5 (Pfizer Ltd., Sandwich, Kent, United Kingdom); ketoconazole, 0.094 (Janssen Research Foundation, Beerse, Belgium); itraconazole, 0.35 (Janssen); miconazole, 0.084 (Janssen); amphotericin B, 54 (E. R. Squibb & Sons, Princeton, N.J.); rhodamine 6G, 10 (Sigma, Penrose, Auckland, N. Z.); rhodamine 123, 50 (Sigma); trifluoperazine 100 (Sigma); benomyl, 10 (Nippon Roche); cycloheximide, 5 (Sigma); carbonyl cyanide p-chlorophenylhydrazone, 490 (CCCP, Sigma); oligomycin, 10 (Sigma); nigericin, 100 (Sigma); tamoxifen, 25 (Sigma); naftifine, 50 (Novartis); quinidine, 500 (Sigma); valinomycin, 20 (Sigma); verapamil, 1000 (Sigma). Agar plates were incubated at 30° C. for 48 h or until clear growth inhibition zones were visible.

AD-PDR5 (Pdr5p) = experiment: Disk diffusion assay, AD-PDR5; assay type: cell-based, S. cerevisiae; conditions: AD-pABC as negative control, 30° C., 48 h
Procedure: (§3) The cells were spread on CSM-agar plates and exposed to the drugs or chemicals applied to filter disks and incubated at 30° C. for 48 h. The amounts of individual drugs are given in the Materials and Methods section of Example 3. Rhodamine 6G and rhodamine 123 were dissolved in ethanol and the other antifungals were dissolved in DMSO.
(§4) Drug susceptibility was measured using disk assays on CSM-URA plates (containing 1.5% w/v agar). Yeast cells (200 μl ml of 5×10^6 cells/ml) were spread on the plates. 10 μl of drug solution or solvent control were spotted onto sterile Whatman paper disks on the pre-spread plates. The following amounts (nmoles) of drugs were applied to individual disks: fluconazole, 633 (Pfizer Ltd., Sandwich, Kent, United Kingdom); itraconazole, 0.23 (Janssen); miconazole, 0.42 (Janssen); cycloheximide, 0.71 (Sigma); rhodamine 6G, 100 (Sigma, Penrose, Auckland, N. Z.); rhodamine 123, 125 (Sigma); cerulenin 4.5 (Sigma); 5-flucytosine 100 (Sigma); amphotericin B, 97 (E. R. Squibb & Sons, Princeton, N.J.); nystatin 65 (Sigma). Agar plates were incubated at 30° C. for 48 h or until clear growth inhibition zones were visible.

AD-CDR1 (Cdr1p) = experiment: Disk diffusion assay, AD-CDR1; assay type: cell-based, S. cerevisiae; conditions: AD-pABC as negative control, 30° C., 48 h
Procedure: as §3, §4

Cdr1p ATPase = target: T1, Cdr1p ATPase (Candida albicans, UniProt P43071, E1416A/I916V/K1177E/L1021S/Q214E/T842S/Y427F); experiment: Oligomycin sensitive ATPase/NTPase activity of AD1002 plasma membranes; assay type: biochemical, C. albicans
T1 construct: expressed in transfected cells; host or cells: S. cerevisiae AD1-8u- with pKEN1002 integrated at the PDR5 locus (strain AD1002), plasma membrane fraction
Procedure: Membrane fractions were isolated from S. cerevisiae AD1002 (▪) or parental AD1-8u^− cells (●). ATPase assays were carried out at 30° C. for 30 min, as described in Materials and methods for Example 2. The oligomycin-sensitive activity was determined as the difference in ATPase activity in the presence and absence of 20 μM oligomycin. […] The results are the means (+/−SD) of four determinations carried out on two membrane preparations.
(B) Inhibition profile with KN20 on the oligomycin-sensitive Cdr1p ATPase activity of plasma membranes from AD1002 minus the oligomycin-sensitive ATPase activity of plasma membranes from the isogenic AD1-8u^− strain.
Yeast were grown in YEPD, pH 5.5 at 30° C. until they reached late-exponential phase of growth (OD600 nm=7), washed twice in ice-cold distilled water, and incubated on ice for 30 min to minimize glucose-stimulated Pma1p activity. Cells were resuspended in homogenising medium (50 mM Tris pH 7.5, 2 mM EDTA and 1 mM phenylmethylsulfonyl fluoride) and disrupted using a Braun Homogeniser. Cell debris and unbroken cells were removed by centrifuging at 2,000×g at 4° C. for 10 min. A crude membrane fraction was isolated from the cell-free supernatant by centrifuging at 30,000×g at 4° C. for 45 min. Plasma membranes were prepared by centrifugation of the supernatant obtained after selective precipitation of mitochondria at pH 5.2 as described previously (Goffeau, A. and Dufour, J. P., 1988). The plasma membranes were resuspended in 10 mM Tris pH 7.0, 0.5 mM EDTA and 20% [v/v] glycerol and stored at −80° C. Protein was determined using a micro-Bradford (Bio-Rad Laboratories, Hercules, Calif. [Bradford, M. M., 1976]) assay with gamma-globulin as standard. Nucleotide triphosphatase activity was measured by incubating the plasma membrane fractions (10 μg) at 30° C. in a final volume of 120 μl containing 6 mM NTP, 7 mM MgSO4 in 59 mM MES-Tris buffer pH 6.0-8.0. To eliminate possible contributions from nonspecific phosphatases, vacuolar, or mitochondrial ATPases, 0.2 mM ammonium molybdate, 50 mM KNO3 and 10 mM NaN3, respectively, were included in assays (Monk B C, et al, 1991). Other ATPase inhibitors (20 μM oligomycin, 20 μM aurovertin B or 100 μM vanadate were added to the reaction where indicated. After 30 min the reaction was stopped by adding 130 μl of a solution containing 1% (w/v) SDS, 0.6 M H2SO4, 1.2% (w/v) ammonium molybdate and 1.6% (w/v) ascorbic acid. Inorganic phosphate released from NTPs was measured at 750 nm after 10 min incubation at room temperature.

[2] = test system: S. cerevisiae AD1-8u^− (CDR1−); experiment: Disk drug susceptibility assay, parental strain; assay type: cell-based; conditions: at the concentrations used; 30° C., 48 h
Procedure: as §1, §2

AD-BEN^R (Ben^Rp) = experiment: Disk diffusion assay, AD-BEN^R; assay type: cell-based, S. cerevisiae; conditions: AD-pABC as negative control, 30° C., 48 h
Procedure: as §3, §4

AD-ERG11 (Erg11p) = experiment: Disk diffusion assay, AD-ERG11; assay type: cell-based, S. cerevisiae; conditions: AD-pABC as negative control, 30° C., 48 h
Procedure: as §3, §4

T1 sequence (P43071 whole entry Q214E/Y427F/T842S/I916V/L1021S/K1177E/E1416A): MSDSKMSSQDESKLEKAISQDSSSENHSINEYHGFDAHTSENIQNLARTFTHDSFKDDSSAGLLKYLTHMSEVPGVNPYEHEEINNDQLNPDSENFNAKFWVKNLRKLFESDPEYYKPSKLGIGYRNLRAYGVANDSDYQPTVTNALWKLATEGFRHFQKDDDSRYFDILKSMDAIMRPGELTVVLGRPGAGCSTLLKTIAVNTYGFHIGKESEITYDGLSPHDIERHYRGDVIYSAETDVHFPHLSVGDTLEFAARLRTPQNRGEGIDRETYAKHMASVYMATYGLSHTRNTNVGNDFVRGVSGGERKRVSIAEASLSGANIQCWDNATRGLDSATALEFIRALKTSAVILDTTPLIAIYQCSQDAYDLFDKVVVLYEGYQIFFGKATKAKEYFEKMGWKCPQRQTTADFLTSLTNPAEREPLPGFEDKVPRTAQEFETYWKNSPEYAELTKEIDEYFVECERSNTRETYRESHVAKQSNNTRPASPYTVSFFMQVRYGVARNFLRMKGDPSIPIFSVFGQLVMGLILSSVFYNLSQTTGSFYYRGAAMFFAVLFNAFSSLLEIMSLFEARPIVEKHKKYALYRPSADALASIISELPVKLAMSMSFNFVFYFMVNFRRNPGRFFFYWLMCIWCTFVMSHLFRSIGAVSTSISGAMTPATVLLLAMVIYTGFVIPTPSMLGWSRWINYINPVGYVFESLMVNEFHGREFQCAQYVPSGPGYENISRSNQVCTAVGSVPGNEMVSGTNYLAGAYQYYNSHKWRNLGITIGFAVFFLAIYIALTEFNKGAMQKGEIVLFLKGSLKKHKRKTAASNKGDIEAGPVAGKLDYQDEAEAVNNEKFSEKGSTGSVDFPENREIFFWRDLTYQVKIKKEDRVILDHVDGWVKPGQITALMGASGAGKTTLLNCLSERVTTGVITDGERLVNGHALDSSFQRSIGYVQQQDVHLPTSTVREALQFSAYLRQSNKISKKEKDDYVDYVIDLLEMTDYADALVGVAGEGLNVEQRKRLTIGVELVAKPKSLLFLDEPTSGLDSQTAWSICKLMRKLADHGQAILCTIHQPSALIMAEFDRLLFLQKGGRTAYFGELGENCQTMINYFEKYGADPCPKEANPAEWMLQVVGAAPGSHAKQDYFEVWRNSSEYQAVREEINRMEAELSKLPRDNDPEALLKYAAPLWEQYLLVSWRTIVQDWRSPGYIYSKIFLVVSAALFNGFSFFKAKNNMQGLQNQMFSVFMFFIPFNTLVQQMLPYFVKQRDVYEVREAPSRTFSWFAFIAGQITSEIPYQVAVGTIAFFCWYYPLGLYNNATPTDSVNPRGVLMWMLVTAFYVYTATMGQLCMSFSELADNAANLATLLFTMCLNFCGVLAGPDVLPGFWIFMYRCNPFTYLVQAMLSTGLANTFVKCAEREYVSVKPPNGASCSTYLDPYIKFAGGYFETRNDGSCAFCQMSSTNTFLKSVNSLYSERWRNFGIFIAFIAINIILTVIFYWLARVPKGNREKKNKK

| Molecule | resistance/sensitivity in disk diffusion assay (AD-PDR5 (Pdr5p)) | resistance/sensitivity in disk diffusion assay (AD-CDR1 (Cdr1p)) | resistance/sensitivity in disk diffusion assay (AD-BEN^R (Ben^Rp)) | resistance/sensitivity in disk diffusion assay (AD-ERG11 (Erg11p)) | resistance of AD1002 relative to parental strain in disk assay [1] | further results |
| --- | --- | --- | --- | --- | --- | --- |
| C[C@@H]1[C@H](O)[C@@H](C)/C=C/C=C/C=C/C=C/C=C/C=C/C=C/[C@H](O[C@@H]2O[C@H](C)[C@@H](O)[C@H](N)[C@@H]2O)C[C@@H]2O[C@](O)(C[C@@H](O)C[C@@H](O)[C@H](O)CC[C@@H](O)C[C@@H](O)CC(=O)O[C@H]1C)C[C@H](O)[C@H]2C(=O)O [amphotericin B] | sensitivities | sensitivities |  |  |  | resistance of AD1002 relative to parental strain in disk assay ([1]; listed as Amphotericin B): toxicity in yeast was not modified |
| CC[C@H]1O[C@]2(C)[C@H](OC(C)=O)[C@@]1(C)O[C@@H](/C=C/C=C/C=C/c1oc(=O)cc(OC)c1C)[C@@H]2O [aurovertin B] |  |  |  |  |  | sensitivity of AD1002 ATPase/NTPase activity to inhibitor (Cdr1p ATPase; aurovertin B 20 μM): insensitive |
| CCCCNC(=O)n1c(NC(=O)OC)nc2ccccc21 [benomyl] |  |  |  |  |  | sensitivity of parental strain AD1-8u^− in disk assay [2]: resistant |
| C/C=C/C/C=C/CCC(=O)[C@H]1O[C@H]1C(N)=O [cerulenin] |  |  | resistant | susceptible |  |  |
| C[C@@H]1C[C@@H]([C@H](O)CC2CC(=O)NC(=O)C2)C(=O)[C@@H](C)C1 [cycloheximide] | resistances | resistances | resistant | susceptible | confers resistance to growth inhibition |  |
| Nc1[nH]c(=O)ncc1F [flucytosine] | sensitivities | sensitivities | sensitive | susceptible |  |  |
| Clc1ccc(COC(Cn2ccnc2)c2ccc(Cl)cc2Cl)c(Cl)c1 (centres unmarked) [miconazole] | resistances | resistances | detectable resistance | some resistance |  |  |
| CN(C/C=C/c1ccccc1)Cc1cccc2ccccc12 [naftifine] |  |  |  |  | cross-resistance |  |
| CO[C@@H]1C[C@@H](C[C@H]2CC[C@H](C)[C@H]([C@@H](C)C(=O)O)O2)O[C@]2(O[C@](C)([C@H]3CC[C@@](C)([C@@H]4O[C@@H]([C@H]5O[C@@](O)(CO)[C@H](C)C[C@@H]5C)C[C@@H]4C)O3)C[C@H]2C)[C@@H]1C [nigericin] |  |  |  |  | confers resistance to growth inhibition |  |
| C[C@@H]1[C@H](O)[C@@H](C)/C=C/C=C/CC/C=C/C=C/C=C/C=C/C(O[C@H]2O[C@H](C)[C@@H](O)[C@H](N)[C@@H]2O)CC2O[C@](O)(CC(O)C(O)CCC(O)CC(O)CC(O)CC(=O)O[C@H]1C)CC(O)C2C(=O)O (some centres unmarked) [nystatin] | sensitivities | sensitivities |  |  |  |  |
| CC[C@H]1/C=C/C=C/C[C@@H](C)[C@H](O)[C@@](C)(O)C(=O)[C@@H](C)[C@H](O)[C@@H](C)C(=O)[C@@H](C)[C@H](O)[C@@H](C)/C=C/C(=O)O[C@@H]2[C@H](C)[C@H](CC1)O[C@]1(CC[C@H](C)[C@H](C[C@@H](C)O)O1)[C@H]2C [oligomycin] |  |  |  |  |  | sensitivity of parental strain AD1-8u^− in disk assay [2]: resistant |
| C=C[C@H]1C[N@@]2CC[C@H]1C[C@@H]2[C@@H](O)c1ccnc2ccc(OC)cc12 [quinidine] |  |  |  |  |  | sensitivity of parental strain AD1-8u^− in disk assay [2]: resistant |
| CC/C(=C(\c1ccccc1)c1ccc(OCCN(C)C)cc1)c1ccccc1 [tamoxifen] |  |  |  |  | confers resistance to growth inhibition |  |
| CN1CCN(CCCN2c3ccccc3Sc3ccc(C(F)(F)F)cc32)CC1 [trifluoperazine] |  |  |  |  | confers resistance to growth inhibition |  |
| CC(C)[C@@H]1NC(=O)[C@H](C)OC(=O)[C@@H](C(C)C)NC(=O)[C@@H](C(C)C)OC(=O)[C@H](C(C)C)NC(=O)[C@H](C)OC(=O)[C@@H](C(C)C)NC(=O)[C@@H](C(C)C)OC(=O)[C@H](C(C)C)NC(=O)[C@H](C)OC(=O)[C@@H](C(C)C)NC(=O)[C@@H](C(C)C)OC1=O [valinomycin] |  |  |  |  |  | sensitivity of parental strain AD1-8u^− in disk assay [2]: resistant |
| [O]=[V]([O-])([O-])[O-] [vanadate] |  |  |  |  |  | sensitivity of AD1002 ATPase/NTPase activity to inhibitor (Cdr1p ATPase; vanadate 100 μM): completely sensitive |
| COc1ccc(CCN(C)CCCC(C#N)(c2ccc(OC)c(OC)c2)C(C)C)cc1OC (centres unmarked) [verapamil] |  |  |  |  | confers resistance to growth inhibition |  |
| rhodamine 6G | resistances | resistances | fully sensitive | susceptible | clear resistance |  |
| rhodamine 123 | resistances | resistances | fully sensitive | susceptible | clear resistance |  |
